Reference: publication PMC9205682 (Biochimica et biophysica acta. Biomembranes, 2021)

Biological target: Mycobacterial membrane protein large 3 (Mmpl3) (Mycolicibacterium smegmatis, UniProt A0QP27)
Assay: MicroScale Thermophoresis
Assay type: binding

Mycobacterial membrane protein large 3 (Mmpl3), sequence (A0QP27 whole entry): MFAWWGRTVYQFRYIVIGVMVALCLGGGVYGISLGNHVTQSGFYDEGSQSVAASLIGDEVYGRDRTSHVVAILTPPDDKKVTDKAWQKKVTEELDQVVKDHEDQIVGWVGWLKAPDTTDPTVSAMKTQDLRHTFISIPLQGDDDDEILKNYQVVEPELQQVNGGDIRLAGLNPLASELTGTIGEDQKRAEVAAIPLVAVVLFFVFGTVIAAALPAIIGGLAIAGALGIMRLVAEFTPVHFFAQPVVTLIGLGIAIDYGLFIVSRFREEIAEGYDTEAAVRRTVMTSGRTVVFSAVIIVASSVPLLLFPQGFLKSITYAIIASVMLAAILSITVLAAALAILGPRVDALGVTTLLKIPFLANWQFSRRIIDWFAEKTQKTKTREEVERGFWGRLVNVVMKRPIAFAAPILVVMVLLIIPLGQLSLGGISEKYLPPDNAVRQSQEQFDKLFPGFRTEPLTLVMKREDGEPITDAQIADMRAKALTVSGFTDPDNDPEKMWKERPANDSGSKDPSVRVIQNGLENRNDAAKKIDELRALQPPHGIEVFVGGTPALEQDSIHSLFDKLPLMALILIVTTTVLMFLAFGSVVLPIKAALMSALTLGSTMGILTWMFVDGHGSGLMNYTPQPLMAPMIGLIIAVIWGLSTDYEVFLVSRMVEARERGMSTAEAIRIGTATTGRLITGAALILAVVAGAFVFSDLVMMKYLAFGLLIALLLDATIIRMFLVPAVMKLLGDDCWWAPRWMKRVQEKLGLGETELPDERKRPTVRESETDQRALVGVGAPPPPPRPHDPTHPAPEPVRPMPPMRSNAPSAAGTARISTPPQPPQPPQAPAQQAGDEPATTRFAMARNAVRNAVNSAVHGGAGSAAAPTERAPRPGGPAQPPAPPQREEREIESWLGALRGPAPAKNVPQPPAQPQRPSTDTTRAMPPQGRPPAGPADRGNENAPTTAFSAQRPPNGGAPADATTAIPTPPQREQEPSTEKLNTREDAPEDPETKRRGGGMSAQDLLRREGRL

Structure (SMILES): CC(C)=CCC/C(C)=C/CNCCNC1C2CC3CC(C2)CC1C3 (stereo not shown) [SQ109]
- Kd: 1.56 µM
